Assay results as given in US11453632B2, “1-phenyl-2-phenylethane derivative” (KAO CORPORATION, priority 2018, dated 2022).

Columns and labels:
ERα LBD = target: T1, ERα LBD (Homo sapiens, UniProt P03372); assay: Ability to bind to ERα: pBIND-ERα LBD / GAL4 luciferase reporter in HEK293 cells; format: cell-based; parameters: key: firefly luciferase / Renilla luciferase luminescence ratio; conditions: negative control 0.00847035
T1 construct: host or cells: HEK293
T1 sequence (P03372 311-547 limits assumed): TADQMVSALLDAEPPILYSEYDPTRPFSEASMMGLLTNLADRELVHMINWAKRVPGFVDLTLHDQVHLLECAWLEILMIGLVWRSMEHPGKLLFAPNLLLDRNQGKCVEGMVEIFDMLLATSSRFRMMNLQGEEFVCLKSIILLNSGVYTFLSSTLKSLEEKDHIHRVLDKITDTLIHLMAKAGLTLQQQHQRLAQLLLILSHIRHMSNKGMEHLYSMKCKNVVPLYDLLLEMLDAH
Method: (§1) A human kidney-derived cell line HEK293 was cultured (37° C., 5% CO2) in Dulbecco's modified Eagle medium (hereinafter, abbreviated to DMEM) containing 10% (v/v) fetal bovine serum (FBS) and penicillin/streptomycin.
(§2) 2) Measurement of Binding Activity Against ERs
(§3) Specifically, HEK293 cells were inoculated at a cell density of 4.0×10^4 cells/well to a 96-well plate. After 12 hours therefrom, the medium was replaced with a culture solution (DMEM containing 5% (v/v) charcoal-treated serum). The cells were cotransfected with pBIND-ERα for the expression of ERα LBD or pBIND-ERβ for the expression of ERβ LBD (Promega Corp.) and pGL4.35[luc2P/9XGAL4UAS/Hygro](Promega Corp.) using Lipofectamine 2000 (Invitrogen Corp.) according to the protocol attached to the product. 24 hours after transfection, the medium was replaced with a culture solution containing a test sample, followed by culture for another 24 hours. The activity measurement of firefly luciferase (index for the ligand binding activity of ER) and Renilla reniformis luciferase (index for the transfection efficiency of the plasmids) was carried out using Dual-Glo™ Luciferase Assay System (Promega Corp.) according to the attached protocol. The luminescence intensity of the firefly luciferase was divided by the luminescence intensity of the Renilla reniformis luciferase to calculate a relative light unit (RLU).

ERβ LBD = target: T2, ERβ LBD (Homo sapiens, UniProt Q92731); assay: Ability to bind to ERβ: pBIND-ERβ LBD / GAL4 luciferase reporter in HEK293 cells; format: cell-based; parameters: key: RLU = firefly luminescence / Renilla luminescence; conditions: negative control 0.0118997
T2 construct: host or cells: HEK293
Method: This evaluation system is a system exploiting difference in the sequence of the ligand binding domain (LBD) between ERα and ERβ (J Endocrinol 163: 379-383 (1999)), and enables selective activation of ERβ to be evaluated by determining the binding of a ligand to LBD and the activation of ER.
as §1, §2
as §3, with “This measurement was carried out according to the method described in JP-B-5990058. Specifically,” for “Specifically,”

T2 sequence (Q92731 264-498 limits assumed): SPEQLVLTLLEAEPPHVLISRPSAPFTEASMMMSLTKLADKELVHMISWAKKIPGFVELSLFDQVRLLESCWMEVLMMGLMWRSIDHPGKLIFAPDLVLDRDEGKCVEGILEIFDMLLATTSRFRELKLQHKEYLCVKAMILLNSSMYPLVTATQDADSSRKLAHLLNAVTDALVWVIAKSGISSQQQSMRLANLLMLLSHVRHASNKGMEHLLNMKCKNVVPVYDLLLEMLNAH

Oc1ccc(CC(c2ccc(O)cc2)C2CC2)cc1 (stereo not drawn) [Compound 1, 4,4′-(1-cyclopropylethane-1,2-diyl)diphenol]
relative light unit (RLU), ligand binding activity ERα (ERα LBD; 1 nM): 0.01123 | relative light unit (RLU), ligand binding activity ERα (ERα LBD; 10 nM): 0.01001 | relative light unit (RLU), ligand binding activity ERα (ERα LBD; 100 nM): 0.03514 | relative light unit (RLU), ligand binding activity ERβ (ERβ LBD; 1 nM): 0.04726 | relative light unit (RLU), ligand binding activity ERβ (ERβ LBD; 10 nM): 0.7801 | relative light unit (RLU), ligand binding activity ERβ (ERβ LBD; 100 nM): 0.674

CC=CC(Cc1ccc(O)cc1)c1ccc(O)cc1 (stereo not drawn) [Compound 5, 4,4′-(pent-3-ene-1,2-diyl)diphenol]
relative light unit (RLU), ligand binding activity ERα (ERα LBD; 1 nM): 0.006803 | relative light unit (RLU), ligand binding activity ERα (ERα LBD; 10 nM): 0.008307 | relative light unit (RLU), ligand binding activity ERα (ERα LBD; 100 nM): 0.319 | relative light unit (RLU), ligand binding activity ERβ (ERβ LBD; 0.01 nM): 0.01699 | relative light unit (RLU), ligand binding activity ERβ (ERβ LBD; 0.1 nM): 0.1395 | relative light unit (RLU), ligand binding activity ERβ (ERβ LBD; 1 nM): 0.9744 | relative light unit (RLU), ligand binding activity ERβ (ERβ LBD; 10 nM): 1.153 | relative light unit (RLU), ligand binding activity ERβ (ERβ LBD; 100 nM): 1.216

CCC(C)C(Cc1ccc(O)cc1)c1ccc(O)cc1 (stereo not drawn) [Compound 6, 4,4′-(3-methylpentane-1,2-diyl)diphenol]
relative light unit (RLU), ligand binding activity ERα (ERα LBD; 1 nM): 0.008097 | relative light unit (RLU), ligand binding activity ERα (ERα LBD; 10 nM): 0.01098 | relative light unit (RLU), ligand binding activity ERα (ERα LBD; 100 nM): 0.01183 | relative light unit (RLU), ligand binding activity ERβ (ERβ LBD; 1 nM): 0.01046 | relative light unit (RLU), ligand binding activity ERβ (ERβ LBD; 10 nM): 0.02031 | relative light unit (RLU), ligand binding activity ERβ (ERβ LBD; 100 nM): 0.2041

Oc1ccc(CC(C=CF)c2ccc(O)cc2)cc1 (stereo not drawn) [Compound 8, 4,4′-(4-fluorobut-3-ene-1,2-diyl)diphenol]
relative light unit (RLU), ligand binding activity ERα (ERα LBD; 0.01 nM): 0.005812 | relative light unit (RLU), ligand binding activity ERα (ERα LBD; 0.1 nM): 0.005926 | relative light unit (RLU), ligand binding activity ERα (ERα LBD; 1 nM): 0.007223 | relative light unit (RLU), ligand binding activity ERα (ERα LBD; 10 nM): 0.1184 | relative light unit (RLU), ligand binding activity ERα (ERα LBD; 100 nM): 0.423 | relative light unit (RLU), ligand binding activity ERβ (ERβ LBD; 0.01 nM): 0.01223 | relative light unit (RLU), ligand binding activity ERβ (ERβ LBD; 0.1 nM): 0.5254 | relative light unit (RLU), ligand binding activity ERβ (ERβ LBD; 1 nM): 0.9979 | relative light unit (RLU), ligand binding activity ERβ (ERβ LBD; 10 nM): 1.068 | relative light unit (RLU), ligand binding activity ERβ (ERβ LBD; 100 nM): 1.031

O=C(NC(Cc1ccc(O)cc1)c1ccc(O)cc1)C(F)(F)F (stereo not drawn) [Compound 10, N-(1,2-bis(4-hydroxyphenyl)ethyl)-2,2,2-trifluoroacetamide]
relative light unit (RLU), ligand binding activity ERα (ERα LBD; 1 nM): 0.008272 | relative light unit (RLU), ligand binding activity ERα (ERα LBD; 10 nM): 0.0163 | relative light unit (RLU), ligand binding activity ERα (ERα LBD; 100 nM): 0.01156 | relative light unit (RLU), ligand binding activity ERβ (ERβ LBD; 1 nM): 0.01539 | relative light unit (RLU), ligand binding activity ERβ (ERβ LBD; 10 nM): 0.0134 | relative light unit (RLU), ligand binding activity ERβ (ERβ LBD; 100 nM): 0.2211

Oc1ccc(CC(c2ccc(O)cc2)c2ccn[nH]2)cc1 (stereo not drawn) [Compound 12, 4,4′-(1-(1H-pyrazol-5-yl)ethane-1,2-diyl)diphenol]
relative light unit (RLU), ligand binding activity ERα (ERα LBD; 0.01 nM): 0.006803 | relative light unit (RLU), ligand binding activity ERα (ERα LBD; 0.1 nM): 0.02077 | relative light unit (RLU), ligand binding activity ERα (ERα LBD; 1 nM): 0.01753 | relative light unit (RLU), ligand binding activity ERα (ERα LBD; 10 nM): 0.01191 | relative light unit (RLU), ligand binding activity ERα (ERα LBD; 100 nM): 0.008685 | relative light unit (RLU), ligand binding activity ERβ (ERβ LBD; 0.01 nM): 0.01836 | relative light unit (RLU), ligand binding activity ERβ (ERβ LBD; 0.1 nM): 0.01732 | relative light unit (RLU), ligand binding activity ERβ (ERβ LBD; 1 nM): 0.03073 | relative light unit (RLU), ligand binding activity ERβ (ERβ LBD; 10 nM): 0.02066 | relative light unit (RLU), ligand binding activity ERβ (ERβ LBD; 100 nM): 0.026

Oc1ccc(CC(c2ccc(O)cc2)c2cnco2)cc1 (stereo not drawn) [Compound 13, 4,4′-(1-(oxazol-5-yl)ethane-1,2-diyl)diphenol]
relative light unit (RLU), ligand binding activity ERα (ERα LBD; 0.01 nM): 0.01362 | relative light unit (RLU), ligand binding activity ERα (ERα LBD; 0.1 nM): 0.006796 | relative light unit (RLU), ligand binding activity ERα (ERα LBD; 1 nM): 0.01285 | relative light unit (RLU), ligand binding activity ERα (ERα LBD; 10 nM): 0.01611 | relative light unit (RLU), ligand binding activity ERα (ERα LBD; 100 nM): 0.01431 | relative light unit (RLU), ligand binding activity ERβ (ERβ LBD; 0.01 nM): 0.01293 | relative light unit (RLU), ligand binding activity ERβ (ERβ LBD; 0.1 nM): 0.01887 | relative light unit (RLU), ligand binding activity ERβ (ERβ LBD; 1 nM): 0.02471 | relative light unit (RLU), ligand binding activity ERβ (ERβ LBD; 10 nM): 0.04313 | relative light unit (RLU), ligand binding activity ERβ (ERβ LBD; 100 nM): 0.8322

Oc1ccc(CC(c2ccc(O)cc2)c2ncon2)cc1 (stereo not drawn) [Compound 14, 4,4′-(1-(1,2,4-oxadiazol-3-yl)ethane-1,2-diyl)diphenol]
relative light unit (RLU), ligand binding activity ERα (ERα LBD; 0.01 nM): 0.01031 | relative light unit (RLU), ligand binding activity ERα (ERα LBD; 0.1 nM): 0.01495 | relative light unit (RLU), ligand binding activity ERα (ERα LBD; 1 nM): 0.02004 | relative light unit (RLU), ligand binding activity ERα (ERα LBD; 10 nM): 0.01493 | relative light unit (RLU), ligand binding activity ERα (ERα LBD; 100 nM): 0.02047 | relative light unit (RLU), ligand binding activity ERβ (ERβ LBD; 0.01 nM): 0.02708 | relative light unit (RLU), ligand binding activity ERβ (ERβ LBD; 0.1 nM): 0.02188 | relative light unit (RLU), ligand binding activity ERβ (ERβ LBD; 1 nM): 0.02069 | relative light unit (RLU), ligand binding activity ERβ (ERβ LBD; 10 nM): 0.08851 | relative light unit (RLU), ligand binding activity ERβ (ERβ LBD; 100 nM): 0.9946

Oc1ccc(CC(c2ccc(O)cc2)c2cocn2)cc1 (stereo not drawn) [Compound 16, 4,4′-(1-(oxazol-4-yl)ethane-1,2-diyl)diphenol]
relative light unit (RLU), ligand binding activity ERα (ERα LBD; 0.01 nM): 0.01424 | relative light unit (RLU), ligand binding activity ERα (ERα LBD; 0.1 nM): 0.01773 | relative light unit (RLU), ligand binding activity ERα (ERα LBD; 1 nM): 0.01714 | relative light unit (RLU), ligand binding activity ERα (ERα LBD; 10 nM): 0.0182 | relative light unit (RLU), ligand binding activity ERα (ERα LBD; 100 nM): 0.0245 | relative light unit (RLU), ligand binding activity ERβ (ERβ LBD; 0.01 nM): 0.0173 | relative light unit (RLU), ligand binding activity ERβ (ERβ LBD; 0.1 nM): 0.02216 | relative light unit (RLU), ligand binding activity ERβ (ERβ LBD; 1 nM): 0.01759 | relative light unit (RLU), ligand binding activity ERβ (ERβ LBD; 10 nM): 0.06729 | relative light unit (RLU), ligand binding activity ERβ (ERβ LBD; 100 nM): 0.8625

Oc1ccc(CC(C=C(Cl)Cl)c2ccc(O)cc2F)c(F)c1 (stereo not drawn) [Compound 17-Cl, 4,4′-(4,4-dichlorobut-3-ene-1,2-diyl)bis(3-fluorophenol)]
relative light unit (RLU), ligand binding activity ERα (ERα LBD; 0.01 nM): 0.03467 | relative light unit (RLU), ligand binding activity ERα (ERα LBD; 0.1 nM): 0.03125 | relative light unit (RLU), ligand binding activity ERα (ERα LBD; 1 nM): 0.05395 | relative light unit (RLU), ligand binding activity ERα (ERα LBD; 10 nM): 0.92 | relative light unit (RLU), ligand binding activity ERα (ERα LBD; 100 nM): 2.707 | relative light unit (RLU), ligand binding activity ERβ (ERβ LBD; 0.01 nM): 0.04108 | relative light unit (RLU), ligand binding activity ERβ (ERβ LBD; 0.1 nM): 0.116 | relative light unit (RLU), ligand binding activity ERβ (ERβ LBD; 1 nM): 1.22 | relative light unit (RLU), ligand binding activity ERβ (ERβ LBD; 10 nM): 1.682 | relative light unit (RLU), ligand binding activity ERβ (ERβ LBD; 100 nM): 2.029

Oc1ccc(C(C=C(Cl)Cl)Cc2c(F)cc(O)cc2F)cc1 (stereo not drawn) [Compound 18-Cl, 4-(4,4-dichloro-2-(4-hydroxyphenyl)but-3-en-1-yl)-3,5-difluorophenol]
relative light unit (RLU), ligand binding activity ERα (ERα LBD; 0.01 nM): 0.0398 | relative light unit (RLU), ligand binding activity ERα (ERα LBD; 0.1 nM): 0.04255 | relative light unit (RLU), ligand binding activity ERα (ERα LBD; 1 nM): 0.122 | relative light unit (RLU), ligand binding activity ERα (ERα LBD; 10 nM): 2.2626 | relative light unit (RLU), ligand binding activity ERα (ERα LBD; 100 nM): 3.229 | relative light unit (RLU), ligand binding activity ERβ (ERβ LBD; 0.01 nM): 0.07422 | relative light unit (RLU), ligand binding activity ERβ (ERβ LBD; 0.1 nM): 0.4259 | relative light unit (RLU), ligand binding activity ERβ (ERβ LBD; 1 nM): 1.819 | relative light unit (RLU), ligand binding activity ERβ (ERβ LBD; 10 nM): 1.997 | relative light unit (RLU), ligand binding activity ERβ (ERβ LBD; 100 nM): 2.261
